Drawing on patent US20130252944A1, “NOVEL FUSED PYRAZOLE DERIVATIVES AND THEIR USE AS ALLOSTERIC MODULATORS OF METABOTROPIC GLUTAMATE RECEPTORS” (priority 2010, published 2013), this text covers EC50 for 27 molecules.

The assay deals with T1, recombinant human mGluR4a receptors (Homo sapiens, UniProt Q14833).
T1 construct: expressed in transfected cells
Description: Fluorescent cell based Ca2+ mobilization assay (FLIPR) on HEK-293 cells expressing human mGluR4. To be noted: positive allosteric modulation in presence of EC25 glutamate; HEK-293 hmGluR4; mean of at least three independent experiments in duplicate; read-out: Ca^2+ Flux (mean EC50). From the text:
mGluR4 Assay on HEK-Expressing Human mGluR4
The compounds of the present invention are positive allosteric modulators of mGluR4 receptor. Their activity was examined on recombinant human mGluR4a receptors by detecting changes in intracellular Ca^2+concentration, using the fluorescent Ca^2+-sensitive dye Fluo4-(AM) and a Fluorometric Imaging Plate Reader (FLIPR, Molecular Devices, Sunnyvale, Calif.).
The cDNA encoding the human metabotropic glutamate receptor (hmGluR4), (accession number NM_000841.1, NCBI Nucleotide database browser), was subcloned into an expression vector containing also the hygromycin resistance gene. In parallel, the cDNA encoding a G protein allowing redirection of the activation signal to intracellular calcium flux was subcloned into a different expression vector containing also the puromycin resistance gene. Transfection of both these vectors into HEK293 cells with PolyFect reagent (Qiagen) according to supplier's protocol, and hygromycin and puromycin treatment allowed selection of antibiotic resistant cells which had integrated stably one or more copies of the plasmids. Positive cellular clones expressing hmGluR4 were identified in a functional assay measuring changes in calcium fluxes in response to glutamate or selective known mGluR4 orthosteric agonists and antagonists.
HEK-293 cells expressing hmGluR4 were maintained in media containing DMEM, dialyzed Fetal Calf Serum (10%), Glutamax™ (2 mM), Penicillin (100 units/mL), Streptomycin (100 μg/mL), Geneticin (100 μg/mL) and Hygromycin-B (40 μg/mL) and puromycin (1 μg/mL) at 37° C./5% CO2.
Human mGluR4 HEK-293 cells were plated out 24 hours prior to FLIPR^384 assay in black-walled, clear-bottomed, poly-L-ornithine-coated 384-well plates at a density of 25,000 cells/well in a glutamine/glutamate free DMEM medium containing foetal bovine serum (10%), penicillin (100 units/mL) and streptomycin (100 μg/mL) at 37° C./5% CO2.
On the day of the assay, the medium was aspirated and the cells were loaded with a 3 μM solution of Fluo4-AM (LuBioScience, Lucerne, Switzerland) in 0.03% pluronic acid. After 1 hour at 37° C./5% CO2, the non incorporated dye was removed by washing cell plate with the assay buffer and the cells were left in the dark at room temperature for […] before testing. All assays were performed in a pH=7.4 buffered-solution containing 20 mM HEPES, 143 mM NaCl, 6 mM KCl, 1 mM MgSO4, 1 mM CaCl2, 0.125 mM sulfapyrazone and 0.1% glucose.
After 10 s of basal fluorescence recording, various concentrations of the compounds of the invention were added to the cells. Changes in fluorescence levels were first monitored for 180 s in order to detect any agonist activity of the compounds. Then the cells were stimulated by an EC25 glutamate concentration for an additional 110 s in order to measure enhancing activities of the compounds of the invention. EC25 glutamate concentration is the concentration giving 25% of the maximal glutamate response.
The concentration-response curves of representative compounds of the present invention were generated using the Prism GraphPad software (Graph Pad Inc, San Diego, USA). The curves were fitted to a four-parameter logistic equation:
(Y=Bottom+(Top−Bottom)/(1+10̂((LogEC50−X)*Hill Slope)
allowing the determination of EC50 values.
The Table 3 below represents the mean EC50 obtained from at least three independent experiments of selected molecules performed in duplicate.
A general note: A change in cytosolic calcium serves as a functional read-out for many receptors and channels.

T1 sequence (Q14833 33-912): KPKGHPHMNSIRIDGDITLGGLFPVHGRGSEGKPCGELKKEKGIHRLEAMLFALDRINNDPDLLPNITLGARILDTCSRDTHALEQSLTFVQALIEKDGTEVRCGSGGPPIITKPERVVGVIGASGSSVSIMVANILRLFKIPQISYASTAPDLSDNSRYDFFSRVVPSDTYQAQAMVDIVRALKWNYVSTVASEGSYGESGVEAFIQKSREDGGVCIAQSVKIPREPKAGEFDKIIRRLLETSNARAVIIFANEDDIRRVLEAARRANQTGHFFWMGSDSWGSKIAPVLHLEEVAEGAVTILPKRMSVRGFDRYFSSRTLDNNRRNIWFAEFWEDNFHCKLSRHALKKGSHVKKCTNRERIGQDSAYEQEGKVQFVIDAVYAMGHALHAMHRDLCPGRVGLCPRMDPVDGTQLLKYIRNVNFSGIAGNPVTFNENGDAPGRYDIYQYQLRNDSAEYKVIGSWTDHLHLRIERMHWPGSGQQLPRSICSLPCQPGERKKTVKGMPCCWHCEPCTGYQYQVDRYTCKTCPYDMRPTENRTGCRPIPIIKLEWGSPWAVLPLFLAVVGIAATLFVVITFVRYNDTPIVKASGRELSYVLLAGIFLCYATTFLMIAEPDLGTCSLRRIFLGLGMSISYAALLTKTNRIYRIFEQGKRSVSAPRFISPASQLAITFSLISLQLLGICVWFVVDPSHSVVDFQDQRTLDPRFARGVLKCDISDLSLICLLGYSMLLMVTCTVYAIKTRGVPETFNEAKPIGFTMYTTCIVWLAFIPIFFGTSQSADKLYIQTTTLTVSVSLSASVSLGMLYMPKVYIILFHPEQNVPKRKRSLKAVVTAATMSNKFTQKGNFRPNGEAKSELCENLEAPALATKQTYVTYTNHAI

In the case of `Cc1cc2[nH]ncc2c2nc(Nc3ccccn3)sc12` [Compound 1-1, (4-Methyl-6H-3-thia-1,6,7-triaza-as-indacen-2-yl)-pyridin-2-yl-amine], the concentration for a half-maximal effect (EC50) is 1000 to 10000 nM. On to `Cc1ccnc(Nc2nc3c(s2)C(C)(C)OC(C)c2n[nH]cc2-3)n1` (stereo not drawn) [Compound 1-2, (4-Methyl-pyrimidin-2-yl)-(4,4,6-trimethyl-6,8-dihydro-4H-5-oxa-3-thia-1,7,8-triaza-cyclopenta[e]azulen-2-yl)-amine], for which the EC50 lay in the range of 1000 to 10000 nM. Consider `Cc1ccnc(Nc2nc3c(s2)CCC(O)c2[nH]ncc2-3)n1` (stereo not drawn) [Compound 1-3, 2-(4-Methyl-pyrimidin-2-ylamino)-4,5,6,7-tetrahydro-3-thia-1,7,8-triaza-cyclopenta[e]azulen-6-ol], for which the EC50 lay within 100 to 1000 nM. For `Cc1ccnc(Nc2nc3c(s2)C(C)(C)OCc2n[nH]cc2-3)n1` [Compound 1-4, (4,4-Dimethyl-6,8-dihydro-4H-5-oxa-3-thia-1,7,8-triaza-cyclopenta[e]azulen-2-yl)-(4-methyl-pyrimidin-2-yl)-amine] the value was 100 to 1000 nM; for `CCCC1Cc2sc(Nc3nccc(C)n3)nc2-c2cn[nH]c21` (stereo not drawn) [Compound 1-5, (4-Methyl-pyrimidin-2-yl)-(5-propyl-5,6-dihydro-4H-3-thia-1,6,7-triaza-as-indacen-2-yl)-amine], 100 to 1000 nM; for `Cc1ccnc(Nc2nc3c(s2)CCCCc2[nH]ncc2-3)n1` [Compound 1-7, (4-Methyl-pyrimidin-2-yl)-(5,6,7,8-tetrahydro-4H-3-thia-1,8,9-triaza-dicyclopenta[a,c]cycloocten-2-yl)-amine], 100 to 1000 nM. For the molecule `CCC1OCc2sc(Nc3nccc(C)n3)nc2-c2c[nH]nc21` (stereo not drawn) [Compound 1-8, (6-Ethyl-6,8-dihydro-4H-5-oxa-3-thia-1,7,8-triaza-cyclopenta[e]azulen-2-yl)-(4-methyl-pyrimidin-2-yl)-amine], the half-maximal effective concentration (EC50) is less than 100 nM. For `Cc1ccnc(Nc2nc3c(s2)CC(C)(C)C(F)(F)c2[nH]ncc2-3)n1` [Compound 1-9, (6,6-Difluoro-5,5-dimethyl-4,5,6,7-tetrahydro-3-thia-1,7,8-triaza-cyclopenta[e]azulen-2-yl)-(4-methyl-pyrimidin-2-yl)-amine] the value was 100 to 1000 nM. In the case of `Cc1ccnc(Nc2nc3c(s2)COC(C)(C)c2n[nH]cc2-3)n1` [Compound 1-10, (6,6-Dimethyl-6,8-dihydro-4H-5-oxa-3-thia-1,7,8-triaza-cyclopenta[e]azulen-2-yl)-(4-methylpyrimidin-2-yl)-amine], the half-maximal effective concentration (EC50) was less than 100 nM. For `Cc1ccnc(Nc2nc3c(s2)CC(C)Cc2n[nH]cc2-3)n1` (stereo not drawn) [Compound 1-11, (4-Methyl-pyrimidin-2-yl)-(5-methyl-4,5,6,8-tetrahydro-3-thia-1,7,8-triaza-cyclopenta[e]azulen-2-yl)-amine] the value was 100 to 1000 nM; for `Cc1ccnc(Nc2nc3c(s2)CCC(C)c2n[nH]cc2-3)n1` (stereo not drawn) [Compound 1-12, (4-Methyl-pyrimidin-2-yl)-(6-methyl-4,5,6,8-tetrahydro-3-thia-1,7,8-triaza-cyclopenta[e]azulen-2-yl)-amine], less than 100 nM; for `Cc1ccnc(Nc2nc3c(s2)COC(C(F)(F)F)c2n[nH]cc2-3)n1` (stereo not drawn) [Compound 1-13, (4-Methyl-pyrimidin-2-yl)-(6-trifluoromethyl-6,8-dihydro-4H-5-oxa-3-thia-1,7,8-triaza-cyclopenta[e]azulen-2-yl)-amine], less than 100 nM. `COc1ccnc(Nc2nc3c(s2)COC(C)c2[nH]ncc2-3)n1` (stereo not drawn) [Compound 1-14, (4-Methoxy-pyrimidin-2-yl)-(6-methyl-6,7-dihydro-4H-5-oxa-3-thia-1,7,8-triaza-cyclopenta[e]azulen-2-yl)-amine]: the EC50 is less than 100 nM. Next, `COC1Cc2n[nH]cc2-c2nc(Nc3nccc(C)n3)sc2C1` (stereo not drawn) [Compound 1-15, (5-Methoxy-4,5,6,8-tetrahydro-3-thia-1,7,8-triaza-cyclopenta[e]azulen-2-yl)-(4-methyl-pyrimidin-2-yl)-amine]: 100 to 1000 nM. For `Cc1ccnc(Nc2nc3c(s2)COC(C(C)C)c2n[nH]cc2-3)n1` (stereo not drawn) [Compound 1-16, (6-Isopropyl-6,8-dihydro-4H-5-oxa-3-thia-1,7,8-triaza-cyclopenta[e]azulen-2-yl)-(4-methyl-pyrimidin-2-yl)-amine] the value was less than 100 nM; for `Cc1ccnc(Nc2nc3c(s2)CCOc2n[nH]cc2-3)n1` [Compound 1-17, (4,8-Dihydro-5H-6-oxa-3-thia-1,7,8-triaza-cyclopenta[e]azulen-2-yl)-(4-methyl-pyrimidin-2-yl)-amine], less than 100 nM; for `Cc1ccnc(Nc2nc3c(s2)CC(F)(F)Cc2n[nH]cc2-3)n1` [Compound 1-18, (5,5-Difluoro-4,5,6,8-tetrahydro-3-thia-1,7,8-triaza-cyclopenta[e]azulen-2-yl)-(4-methyl-pyrimidin-2-yl)-amine], less than 100 nM.

As to `CCC1OCc2sc(Nc3ncc(F)cn3)nc2-c2c[nH]nc21` (stereo not drawn) [Compound 1-19, (6-Ethyl-6,8-dihydro-4H-5-oxa-3-thia-1,7,8-triaza-cyclopenta[e]azulen-2-yl)-(5-fluoro-pyrimidin-2-yl)-amine], the EC50 is less than 100 nM. Next, `CCC1OCc2sc(Nc3nsc(C)n3)nc2-c2c[nH]nc21` (stereo not drawn) [Compound 1-20, (6-Ethyl-6,8-dihydro-4H-5-oxa-3-thia-1,7,8-triaza-cyclopenta[e]azulen-2-yl)-(5-methyl-[1,2,4]thiadiazol-3-yl)-amine]: less than 100 nM; `CCC1OCc2sc(Nc3ncc(F)c(C)n3)nc2-c2cn[nH]c21` (stereo not drawn) [Compound 1-21, (6-Ethyl-6,7-dihydro-4H-5-oxa-3-thia-1,7,8-triaza-cyclopenta[e]azulen-2-yl)-(5-fluoro-4-methyl-pyrimidin-2-yl)-amine]: less than 100 nM.

On to `CCC1OCc2sc(Nc3nccc(OC)n3)nc2-c2cn[nH]c21` (stereo not drawn) [Compound 1-22, (6-Ethyl-6,7-dihydro-4H-5-oxa-3-thia-1,7,8-triaza-cyclopenta[e]azulen-2-yl)-(4-methoxy-pyrimidin-2-yl)-amine], for which the EC50 was less than 100 nM. Next, `CC1OCc2sc(Nc3cccc(F)n3)nc2-c2c[nH]nc21` (stereo not drawn) [Compound 1-23, (6-Fluoro-pyridin-2-yl)-(6-methyl-6,8-dihydro-4H-5-oxa-3-thia-1,7,8-triaza-cyclopenta[e]azulen-2-yl)-amine]: less than 100 nM; `COC1CCc2sc(Nc3nccc(C)n3)nc2-c2cn[nH]c21` (stereo not drawn) [Compound 1-24, (6-Methoxy-4,5,6,7-tetrahydro-3-thia-1,7,8-triaza-cyclopenta[e]azulen-2-yl)-(4-methyl-pyrimidin-2-yl)-amine]: less than 100 nM. For the molecule `CC(C)C1OCc2sc(Nc3cccc(F)n3)nc2-c2cn[nH]c21` (stereo not drawn) [Compound 1-26, (6-Fluoro-pyridin-2-yl)-(6-isopropyl-6,7-dihydro-4H-5-oxa-3-thia-1,7,8-triaza-cyclopenta[e]azulen-2-yl)-amine], the EC50 was in the range of 100 to 1000 nM.

On to `Cc1ccnc(Nc2nc3c(s2)CCC(C(F)(F)F)c2[nH]ncc2-3)n1` (stereo not drawn) [Compound 1-27, (4-Methyl-pyrimidin-2-yl)-(6-trifluoromethyl-4,5,6,7-tetrahydro-3-thia-1,7,8-triaza-cyclopenta[e]azulen-2-yl)-amine], for which the EC50 fell in the range of 100 to 1000 nM. Next, `CC(C)C1OCc2sc(Nc3ncc(F)cn3)nc2-c2cn[nH]c21` (stereo not drawn) [Compound 1-28, (5-Fluoro-pyrimidin-2-yl)-(6-isopropyl-6,7-dihydro-4H-5-oxa-3-thia-1,7,8-triaza-cyclopenta[e]azulen-2-yl)-amine]: less than 100 nM; `Cc1nc(Nc2nc3c(s2)COC(C(C)C)c2[nH]ncc2-3)ncc1F` (stereo not drawn) [Compound 1-29, (5-Fluoro-4-methyl-pyrimidin-2-yl)-(6-isopropyl-6,7-dihydro-4H-5-oxa-3-thia-1,7,8-triaza-cyclopenta[e]azulen-2-yl)-amine]: 100 to 1000 nM.

One may read the EC50 as the concentration needed to bring the measured effect to its halfway point.
